Experimental findings from PMC11352961, “Peptide dendrimers transfecting CRISPR/Cas9 plasmid DNA: optimization and mechanism” (RSC Chemical Biology, 2024) are described below.

For one data set, the system named is HeLa cells. The experiment in a line: Cell viability by PrestoBlue assay after transfection, HeLa cells. The following applies: 4 h. It is filed as cell-based.
For the next data set, the system named is HEK293 cells. The experiment in a line: Cell viability by PrestoBlue assay after transfection, HEK cells. The data set is classed as cell-based. Conditions: 4 h.

Bridge positions count the residues as written; N and C are the ends. Square brackets hold non-standard residues; d marks the D form. Side chains are listed from the residue outwards. Peptide text beside a SMILES is read from it. I, II: the chains in the order shown. * marks the point of attachment. Stearoyl = CCCCCCCCCCCCCCCCCC(=O)*; Palmitoyl = CCCCCCCCCCCCCCCC(=O)*

`CCCCCCCCCCCCCCCCCC(=O)NCCCC[C@@H](NC(=O)[C@@H](CCCCNC(=O)[C@@H](CC(C)C)NC(=O)[C@@H](CCCCN)NC(=O)[C@@H](CCCCNC(=O)[C@@H](CC(C)C)NC(=O)[C@@H](CCCCN)NC(=O)[C@@H](CCCCNC(=O)[C@@H](CC(C)C)NC(=O)[C@H](N)CCCCN)NC(=O)[C@@H](CC(C)C)NC(=O)[C@H](N)CCCCN)NC(=O)[C@@H](CC(C)C)NC(=O)[C@@H](CCCCN)NC(=O)[C@@H](CCCCNC(=O)[C@@H](CC(C)C)NC(=O)[C@H](N)CCCCN)NC(=O)[C@@H](CC(C)C)NC(=O)[C@H](N)CCCCN)NC(=O)[C@@H](CC(C)C)NC(=O)[C@@H](CCCCN)NC(=O)[C@@H](CCCCNC(=O)[C@@H](CC(C)C)NC(=O)[C@@H](CCCCN)NC(=O)[C@@H](CCCCNC(=O)[C@@H](CC(C)C)NC(=O)[C@H](N)CCCCN)NC(=O)[C@@H](CC(C)C)NC(=O)[C@H](N)CCCCN)NC(=O)[C@@H](CC(C)C)NC(=O)[C@@H](CCCCN)NC(=O)[C@@H](CCCCNC(=O)[C@@H](CC(C)C)NC(=O)[C@H](N)CCCCN)NC(=O)[C@@H](CC(C)C)NC(=O)[C@H](N)CCCCN)C(=O)N[C@H](C)C(N)=O` [Z30] (I: H-[dK][dL][dK]([dL-dK])[dK][dL][dK][dK][dL][dK][dK](Stearoyl)[dA]-NH2 / II: H-[dK][dL][dK]([dL-dK])[dK][dL][dK][dK][dL] / III: H-[dK][dL][dK]([dL-dK])[dK][dL] / IV: H-[dK][dL][dK]([dL-dK])[dK][dL]; amide I:6-IV:C, I:9-II:C, II:6-III:C): the “% viability HeLa cells” value with HeLa cells amounted to 91 ± 8%. Also, the “% viability HEK cells” value in the data set with HEK293 cells was determined as 75 ± 1%.
With `CCCCCCCCCCCCCCCCCC(=O)NCCCC[C@@H](NC(=O)[C@@H](CCCCNC(=O)[C@@H](CC(C)C)NC(=O)[C@@H](CC(C)C)NC(=O)[C@@H](CCCCNC(=O)[C@@H](CC(C)C)NC(=O)[C@@H](CCCCN)NC(=O)[C@@H](CCCCNC(=O)[C@@H](CC(C)C)NC(=O)[C@H](N)CCCCN)NC(=O)[C@@H](CC(C)C)NC(=O)[C@H](N)CCCCN)NC(=O)[C@@H](CC(C)C)NC(=O)[C@@H](CCCCN)NC(=O)[C@@H](CCCCNC(=O)[C@@H](CC(C)C)NC(=O)[C@H](N)CCCCN)NC(=O)[C@@H](CC(C)C)NC(=O)[C@H](N)CCCCN)NC(=O)[C@@H](CC(C)C)NC(=O)[C@@H](CC(C)C)NC(=O)[C@@H](CCCCNC(=O)[C@@H](CC(C)C)NC(=O)[C@@H](CCCCN)NC(=O)[C@@H](CCCCNC(=O)[C@@H](CC(C)C)NC(=O)[C@H](N)CCCCN)NC(=O)[C@@H](CC(C)C)NC(=O)[C@H](N)CCCCN)NC(=O)[C@@H](CC(C)C)NC(=O)[C@@H](CCCCN)NC(=O)[C@@H](CCCCNC(=O)[C@@H](CC(C)C)NC(=O)[C@H](N)CCCCN)NC(=O)[C@@H](CC(C)C)NC(=O)[C@H](N)CCCCN)C(N)=O` [Z31] (I: H-[dK][dL][dK]([dL-dK])[dK][dL][dK][dL][dL][dK][dK](Stearoyl)-NH2 / II: H-[dK][dL][dK]([dL-dK])[dK][dL][dK][dL][dL] / III: H-[dK][dL][dK]([dL-dK])[dK][dL] / IV: H-[dK][dL][dK]([dL-dK])[dK][dL]; amide I:6-IV:C, I:9-II:C, II:6-III:C), the “% viability HeLa cells” value in the data set on HeLa cells was found to be 91 ± 6%. Besides, the “% viability HEK cells” value in the data set with HEK293 cells is listed as 96 ± 2%.
The matching figures for `CCCCCCCCCCCCCCCCCC(=O)NCCCC[C@@H](NC(=O)[C@@H](CCCCNC(=O)[C@@H](CC(C)C)NC(=O)[C@@H](CC(C)C)NC(=O)[C@@H](CCCCNC(=O)[C@@H](CC(C)C)NC(=O)[C@@H](CC(C)C)NC(=O)[C@@H](CCCCNC(=O)[C@@H](CC(C)C)NC(=O)[C@H](N)CCCCN)NC(=O)[C@@H](CC(C)C)NC(=O)[C@H](N)CCCCN)NC(=O)[C@@H](CC(C)C)NC(=O)[C@@H](CC(C)C)NC(=O)[C@@H](CCCCNC(=O)[C@@H](CC(C)C)NC(=O)[C@H](N)CCCCN)NC(=O)[C@@H](CC(C)C)NC(=O)[C@H](N)CCCCN)NC(=O)[C@@H](CC(C)C)NC(=O)[C@@H](CC(C)C)NC(=O)[C@@H](CCCCNC(=O)[C@@H](CC(C)C)NC(=O)[C@@H](CC(C)C)NC(=O)[C@@H](CCCCNC(=O)[C@@H](CC(C)C)NC(=O)[C@H](N)CCCCN)NC(=O)[C@@H](CC(C)C)NC(=O)[C@H](N)CCCCN)NC(=O)[C@@H](CC(C)C)NC(=O)[C@@H](CC(C)C)NC(=O)[C@@H](CCCCNC(=O)[C@@H](CC(C)C)NC(=O)[C@H](N)CCCCN)NC(=O)[C@@H](CC(C)C)NC(=O)[C@H](N)CCCCN)C(N)=O` [Z32] (I: H-[dK][dL][dK]([dL-dK])[dL][dL][dK][dL][dL][dK][dK](Stearoyl)-NH2 / II: H-[dK][dL][dK]([dL-dK])[dL][dL][dK][dL][dL] / III: H-[dK][dL][dK]([dL-dK])[dL][dL] / IV: H-[dK][dL][dK]([dL-dK])[dL][dL]; amide I:6-IV:C, I:9-II:C, II:6-III:C): 97 ± 4% and 111 ± 1%.
For the compound `CCCCCCCCCCCCCCCC(=O)NCCCC[C@@H](NC(=O)[C@@H](CCCCNC(=O)[C@@H](CC(C)C)NC(=O)[C@@H](CCCNC(=N)N)NC(=O)[C@@H](CCCCNC(=O)[C@@H](CC(C)C)NC(=O)[C@@H](CCCNC(=N)N)NC(=O)[C@@H](CCCCNC(=O)[C@@H](CC(C)C)NC(=O)[C@H](N)CCCNC(=N)N)NC(=O)[C@@H](CC(C)C)NC(=O)[C@H](N)CCCNC(=N)N)NC(=O)[C@@H](CC(C)C)NC(=O)[C@@H](CCCNC(=N)N)NC(=O)[C@@H](CCCCNC(=O)[C@@H](CC(C)C)NC(=O)[C@H](N)CCCNC(=N)N)NC(=O)[C@@H](CC(C)C)NC(=O)[C@H](N)CCCNC(=N)N)NC(=O)[C@@H](CC(C)C)NC(=O)[C@@H](CCCNC(=N)N)NC(=O)[C@@H](CCCCNC(=O)[C@@H](CC(C)C)NC(=O)[C@@H](CCCNC(=N)N)NC(=O)[C@@H](CCCCNC(=O)[C@@H](CC(C)C)NC(=O)[C@H](N)CCCNC(=N)N)NC(=O)[C@@H](CC(C)C)NC(=O)[C@H](N)CCCNC(=N)N)NC(=O)[C@@H](CC(C)C)NC(=O)[C@@H](CCCNC(=N)N)NC(=O)[C@@H](CCCCNC(=O)[C@@H](CC(C)C)NC(=O)[C@H](N)CCCNC(=N)N)NC(=O)[C@@H](CC(C)C)NC(=O)[C@H](N)CCCNC(=N)N)C(N)=O` [Z33] (I: H-[dR][dL][dK]([dL-dR])[dR][dL][dK][dR][dL][dK][dK](Palmitoyl)-NH2 / II: H-[dR][dL][dK]([dL-dR])[dR][dL][dK][dR][dL] / III: H-[dR][dL][dK]([dL-dR])[dR][dL] / IV: H-[dR][dL][dK]([dL-dR])[dR][dL]; amide I:6-IV:C, I:9-II:C, II:6-III:C), the “% viability HeLa cells” value in the data set with HeLa cells was 93 ± 6%. For the same compound, the “% viability HEK cells” value with HEK293 cells is listed as 84 ± 1%.
For `CCCCCCCCCCCCCCCCCC(=O)NCCCC[C@@H](NC(=O)[C@@H](CCCCNC(=O)[C@@H](CC(C)C)NC(=O)[C@@H](CCCNC(=N)N)NC(=O)[C@@H](CCCCNC(=O)[C@@H](CC(C)C)NC(=O)[C@@H](CCCNC(=N)N)NC(=O)[C@@H](CCCCNC(=O)[C@@H](CC(C)C)NC(=O)[C@H](N)CCCNC(=N)N)NC(=O)[C@@H](CC(C)C)NC(=O)[C@H](N)CCCNC(=N)N)NC(=O)[C@@H](CC(C)C)NC(=O)[C@@H](CCCNC(=N)N)NC(=O)[C@@H](CCCCNC(=O)[C@@H](CC(C)C)NC(=O)[C@H](N)CCCNC(=N)N)NC(=O)[C@@H](CC(C)C)NC(=O)[C@H](N)CCCNC(=N)N)NC(=O)[C@@H](CC(C)C)NC(=O)[C@@H](CCCNC(=N)N)NC(=O)[C@@H](CCCCNC(=O)[C@@H](CC(C)C)NC(=O)[C@@H](CCCNC(=N)N)NC(=O)[C@@H](CCCCNC(=O)[C@@H](CC(C)C)NC(=O)[C@H](N)CCCNC(=N)N)NC(=O)[C@@H](CC(C)C)NC(=O)[C@H](N)CCCNC(=N)N)NC(=O)[C@@H](CC(C)C)NC(=O)[C@@H](CCCNC(=N)N)NC(=O)[C@@H](CCCCNC(=O)[C@@H](CC(C)C)NC(=O)[C@H](N)CCCNC(=N)N)NC(=O)[C@@H](CC(C)C)NC(=O)[C@H](N)CCCNC(=N)N)C(=O)N[C@H](C)C(N)=O` [Z35] (I: H-[dR][dL][dK]([dL-dR])[dR][dL][dK][dR][dL][dK][dK](Stearoyl)[dA]-NH2 / II: H-[dR][dL][dK]([dL-dR])[dR][dL][dK][dR][dL] / III: H-[dR][dL][dK]([dL-dR])[dR][dL] / IV: H-[dR][dL][dK]([dL-dR])[dR][dL]; amide I:6-IV:C, I:9-II:C, II:6-III:C) the same measures were 94 ± 6% and 72 ± 5%.
The matching figures for `CCCCCCCCCCCCCCCCCC(=O)NCCCC[C@@H](NC(=O)[C@@H](CCCCNC(=O)[C@@H](CC(C)C)NC(=O)[C@@H](CC(C)C)NC(=O)[C@@H](CCCCNC(=O)[C@@H](CC(C)C)NC(=O)[C@@H](CCCNC(=N)N)NC(=O)[C@@H](CCCCNC(=O)[C@@H](CC(C)C)NC(=O)[C@H](N)CCCNC(=N)N)NC(=O)[C@@H](CC(C)C)NC(=O)[C@H](N)CCCNC(=N)N)NC(=O)[C@@H](CC(C)C)NC(=O)[C@@H](CCCNC(=N)N)NC(=O)[C@@H](CCCCNC(=O)[C@@H](CC(C)C)NC(=O)[C@H](N)CCCNC(=N)N)NC(=O)[C@@H](CC(C)C)NC(=O)[C@H](N)CCCNC(=N)N)NC(=O)[C@@H](CC(C)C)NC(=O)[C@@H](CC(C)C)NC(=O)[C@@H](CCCCNC(=O)[C@@H](CC(C)C)NC(=O)[C@@H](CCCNC(=N)N)NC(=O)[C@@H](CCCCNC(=O)[C@@H](CC(C)C)NC(=O)[C@H](N)CCCNC(=N)N)NC(=O)[C@@H](CC(C)C)NC(=O)[C@H](N)CCCNC(=N)N)NC(=O)[C@@H](CC(C)C)NC(=O)[C@@H](CCCNC(=N)N)NC(=O)[C@@H](CCCCNC(=O)[C@@H](CC(C)C)NC(=O)[C@H](N)CCCNC(=N)N)NC(=O)[C@@H](CC(C)C)NC(=O)[C@H](N)CCCNC(=N)N)C(N)=O` [Z36] (I: H-[dR][dL][dK]([dL-dR])[dR][dL][dK][dL][dL][dK][dK](Stearoyl)-NH2 / II: H-[dR][dL][dK]([dL-dR])[dR][dL][dK][dL][dL] / III: H-[dR][dL][dK]([dL-dR])[dR][dL] / IV: H-[dR][dL][dK]([dL-dR])[dR][dL]; amide I:6-IV:C, I:9-II:C, II:6-III:C): 92 ± 6% and 87 ± 2%.
